Like-named read-outs stand apart in the source and are kept apart here.
How the values were obtained:
[1] = Cytotoxic effect summarized over cells derived from various HCV strains (WST-1); format: cell-based; conditions: human; seven full-length HCV-RNA-replicating cell lines; read-out: CC50 values, range over all cells
Text: (§1) Assay systems using OR6 cells (HCV-O strain), 1B-4R cells (HCV-1B-4 strain), and AH1R cells (HCV-AH1R strain) as HuH-7 cell-derived full-length HCV-RNA-replicating cells, and ORL8 cells (HCV-O strain), ORL11 cells (HCV-O strain), 1B-4RL cells (HCV-1B-4 strain), and KAH5RL cells (HCV-KAH5 strain) as Li23 cell-derived full-length HCV-RNA-replicating cells were used for the quantitative analysis of anti-HCV activity and evaluation of a cytotoxic effect in the present invention. […] In addition, all the HCV strains belong to genotype 1b.

[2] = system: HCV-RNA replication in AH1R cells (HCV-AH1 strain, HuH-7-derived); experiment: microbe, parasite or virus in culture; format: cell-based, HCV genotype 1b; conditions: for EC50: Hepatitis C virus, 72 hours, renilla luciferase activity
Text: as §1
N-89 was added so as to achieve concentrations of 500 nM, a 2-fold dilution series from 500 nM (250, 125, 63, 31, 16, and 8 nM), and 0. The luciferase activities were measured 72 hours after the culture.
N-251 was added so as to achieve concentrations of 2 μM, a 2-fold dilution series from 2 μM (1, 0.5, 0.25, 0.13, 0.06, and 0.03 μM), and 0. The luciferase activities were measured 72 hours after the culture.

[3] = system: HCV-RNA replication in 1B-4RL cells (HCV-1B-4 strain, Li23-derived); experiment: microbe, parasite or virus in culture; format: cell-based, HCV genotype 1b; conditions: for EC50: Hepatitis C virus, 72 hours, renilla luciferase activity
Method: For N-251, the results at concentrations of up to 1.3 μM are shown.

[4] = system: HCV core protein in ORL8 cells; experiment: Western blot analysis of HCV core protein expression in ORL8 cells; format: cell-based, HCV genotype 1b; conditions: 72 hours, 0.078-5 μM
Method: N-89 and N-251 were diluted with DMSO. Sampling was performed with 100 μL of 2×SDS buffer 72 hours after the culture. 10 μL of a sample were applied to SDS-PAGE electrophoresis and subjected to Western blot analysis using an anti-HCV core antibody and an anti-β-actin antibody according to a conventional method. It should be noted that for the detection of β-actin, a sample diluted 10-fold with 2×SDS buffer in advance was used.

[5] = system: HCV-RNA replication in ORL8 cells; experiment: Combination effect with existing anti-HCV agents in ORL8 cells (luciferase activity vs expected additive curve); format: cell-based, HCV genotype 1b; conditions: for effect in combination with CsA: CsA 0.2, 0.3, 0.4 μM; for effect in combination with CsA / effect in combination with FLV / effect in combination with RBV: compound 0.1, 0.2, 0.4 μM; for effect in combination with FLV: FLV 0.3, 1.0, 3.0 μM; for effect in combination with RBV: RBV 12.5, 25, 50 μM
Method: The effect of N-89 in combination with RBV was examined using ORL8 cells.
The drugs RBV and N-89 were added so that the concentrations of RBV were set to 0, 12.5, 25, and 50 μM and the concentrations of N-89 were set to 0, 0.1, 0.2, and 0.4 μM at each concentration of RBV. The luciferase activity was measured 72 hours after the culture.
The upper left panel of FIG. 19 and the upper right panel of FIG. 19 show the logarithmic and linear plots expressed by % of the measurement results, respectively.
The effect of N-251 in combination with RBV was examined using ORL8 cells.
The effect of N-89 in combination with IFN-α and RBV was examined using ORL8 cells.
The drugs N-89, IFN-α, and RBV were added so that the concentrations of the two drugs IFN-α and RBV were fixed as follows: both of IFN-α and RBV at 0; IFN-α at 1 IU/mL and RBV at 6.25 μM; IFN-α at 4 IU/mL and RBV at 12.5 μM; and IFN-α at 16 IU/mL and RBV at 25 μM, and the concentrations of N-89 were set to 0, 0.1, 0.2, and 0.4 μM in the respective combinations of IFN-α and RBV. The luciferase activity was measured 72 hours after the culture.
The luciferase activity was measured 72 hours after the culture.
The effect of N-89 in combination with FLV was examined using ORL8 cells.
The drugs FLV and N-89 were added so that the concentrations of FLV were set to 0.3, 1.0, and 3.0 μM and the concentrations of N-89 were set to 0, 0.1, 0.2, and 0.4 μM at each concentration of FLV. The luciferase activity was measured 72 hours after the culture.
The effect of N-251 in combination with FLV was examined using ORL8 cells.
The drugs FLV and N-251 were added so that the concentrations of FLV were set to 0.3, 1.0, and 3.0 μM and the concentrations of N-251 were set to 0, 0.1, 0.2, and 0.4 μM at each concentration of FLV. The luciferase activity was measured 72 hours after the culture.

[6] = system: HCV-RNA replication in OR6 cells (HCV-O strain, HuH-7-derived); experiment: microbe, parasite or virus in culture; conditions: for EC50: Hepatitis C virus, OR6, 72 h; for SI (CC50/EC50): OR6 cells
Text: Assay systems using OR6 cells (HCV-O strain), 1B-4R cells (HCV-1B-4 strain), and AH1R cells (HCV-AH1R strain) as HuH-7 cell-derived full-length HCV-RNA-replicating cells, and ORL8 cells (HCV-O strain), ORL11 cells (HCV-O strain), 1B-4RL cells (HCV-1B-4 strain), and KAH5RL cells (HCV-KAH5 strain) as Li23 cell-derived full-length HCV-RNA-replicating cells were used for the quantitative analysis of anti-HCV activity and evaluation of a cytotoxic effect in the present invention. The three cell lines, i.e., the 1B-4R cells, the 1B-4RL cells, and the KAH5RL cells have been disclosed in WO 2010/026965 A1. The AH1R cells may be produced with reference to Mori K et al., BBRC, 371:104-109, 2008 and WO 2010/026965 A1. In addition, all the HCV strains belong to genotype 1b.
As necessary, an increase or decrease in expression level of an HCV protein (core protein) was examined by a Western blot method.
In the measurement of the renilla luciferase activity and the measurement by the WST-1 method, experiments were performed in three wells independent of each other, and their means and standard deviation were calculated.
OR6 cells, which had been cultured in general medium for subculture, were plated onto a 24-well plate (2×10^4 cells in 1 mL of medium for […] cell line per well) and cultured. After 24 hours, N-89 was added so as to achieve concentrations of 20 μM, a 2-fold dilution series from 20 μM (10, 5, 2.5, 1.3, 0.63, and 0.31 μM), and 0, or N-251 was added so as to achieve concentrations of 10 μM, a 2-fold dilution series from 10 μM (5, 2.5, 1.3, 0.63, 0.31, and 0.16 μM), and 0. The renilla luciferase activities were measured 72 hours after the culture. N-89 and N-251 were diluted with DMSO.
The anti-HCV activity of artemisinin was examined using OR6 cells and ORL8 cells and the EC50 values were calculated. An experimental scale and schedule are the same as those in Example 1.
Artemisinin was added so as to achieve concentrations of 100 μM, a 2-fold dilution series from 100 μM (50, 25, 13, 6.3, 3.1, and 1.6 μM), and 0. The luciferase activities were measured 72 hours after the culture.

[7] = system: HCV-RNA replication in 1B-4R cells (HCV-1B-4 strain, HuH-7-derived); experiment: microbe, parasite or virus in culture; format: cell-based, HCV genotype 1b; conditions: for EC50: Hepatitis C virus, 72 hours, renilla luciferase activity
Text: as §1

[8] = system: HCV-RNA replication in KAH5RL cells (HCV-KAH5 strain, Li23-derived); experiment: microbe, parasite or virus in culture; format: cell-based, HCV genotype 1b; conditions: for EC50: Hepatitis C virus, 72 hours, renilla luciferase activity
Method: N-89 was added so as to achieve concentrations of 10 μM, a 2-fold dilution series from 10 μM (5, 2.5, 1.3, 0.63, 0.31, and 0.16 μM), and 0. The luciferase activities were measured 72 hours after the culture.
N-251 was added so as to achieve concentrations of 5 μM, a 2-fold dilution series from 5 μM (2.5, 1.3, 0.63, 0.31, 0.16, and 0.08 μM), and 0. The luciferase activities were measured 72 hours after the culture.

Row | Structure (SMILES) | CC50 [1] [nM] | SI (CC50/EC50) [2] | EC50 [2] [nM] | SI (CC50/EC50) ([2]; listed as N89) | SI (CC50/EC50) [3] | EC50 [3] [nM] | level of the HCV core protein (Western blot) [4] | effect in combination with CsA ([5]; 72 hours) | effect in combination with FLV ([5]; 72 hours) | gaps between actually measured values and values expected as an additive effect ([5]; IFN-α 1 IU/mL and RBV 6.25 μM, N-89 0.1-0.4 μM) | effect in combination with IFN-α and RBV ([5]; IFN-α 4 IU/mL + RBV 12.5 μM and IFN-α 16 IU/mL + RBV 25 μM, N-89 0.1-0.4 μM, 72 hours) | effect in combination with RBV ([5]; 72 hours) | EC50 [6] [nM] | SI (CC50/EC50) [6] | SI (CC50/EC50) [7] | EC50 [7] [nM] | SI (CC50/EC50) [8] | EC50 [8] [nM]
1 | C1CCCCCC2(CCCCC1)OOCCCOO2 [N-89, 1,2,6,7-tetraoxaspiro[7,11]nonadecane] | 500 to 9300 | about 20 | 25 | ~20 | 20 | 120 | reduced depending on the concentrations | synergistic effect | synergistic effect | little gaps | synergistic effect | synergistic effect | 660 | 14 | 22 | 420 | 13 | 190
2 | OCCCCCCC1COOC2(CCCCCCCCCCC2)OOC1 [N-251, 6-(1,2,6,7-tetraoxaspiro[7,11]nonadec-4-yl)] | 490 to 3800 | 3.5 | 140 |  | 8.3 | 230 | reduced depending on the concentrations | synergistic effect | synergistic effect |  |  | synergistic effect | 690 | 4.4 | 3.9 | 980 | 11 | 290
